From patent US6916849B2, “Compositions for improving lipid content in the blood” (priority 2000, dated 2005)
Blank lines part the entries; values can stand above or below the compound they belong to.

How the values were obtained:
[1] = system: total cholesterol in the serum; experiment: Evaluation of serum lipid level: total cholesterol in serum of beagle dogs after oral administration for 11 days (CEH-COD-POD method); details: oral capsule once daily, pravastatin 2 mg/kg, mean of 5 dogs
Excerpt: (§1) Pravastatin with a purity of 99.4%, manufactured at Sankyo Co. Ltd., was employed in the study.
(§2) Male beagle dogs were purchased at 5 months old from Covance Research Products Inc., as the test animals, and were used after quarantine and acclimatization periods of approximately 1 month.
(§3) The required amounts of pravastatin or each combination drug as calculated based on the body weight of each animal were placed in a gelatin capsule (½-ounce volume) purchased from TORPAC Co. Capsules filled with pravastatin were stored in a cold room and with combination drugs at room temperature until use.
(§4) Combination drugs were put in identical geltin capsules.
(§5) Capsules filled with pravastatin or combination drugs were orally administered once daily between 9:00 and 12:30 to the test animals. All test animals were fasted 2-3 hr prior to administration. The administration period was 11 successive days.
(§6) Approximately 10 ml of blood were collected from the cephalic vein on 14 and 7 days before administration (2 and one week before the drug administration) and 4, 8, and 12 days after administration of the capsules. The animals were fasted for approximate 18 hr prior to blood collection. Collected blood was placed into test tubes and left for 0.5-1 hr at room temperature. The test tubes were then centrifuged at 3,000 rpm for 10 min to isolate serum. Levels of total cholesterol and ALP in the serum were determined by the CEH-COD-POD and Bessey-Lowry methods, respectively.
(§7) For quantitative analyses, an automatic analyzer, Monarch (Instrumentation Laboratory), was used.
(§8) Each value represents the mean value calculated from 5 animals.

ALP in the serum = details: oral capsule once daily, pravastatin 2 mg/kg, riboflavin acetate 6 mg/kg, relative to pre-administration average (100), mean of 5 dogs
Excerpt: as §1, §2, §3, §4, §5, §6, §7, §8

[2] = ascorbic acid 50 mg/kg, relative to pre-administration average (100)
[3] = d-α-tocopherol acetate 10 mg/kg, ascorbic acid 50 mg/kg, relative to pre-administration average (100)
[4] = d-α-tocopherol acetate 10 mg/kg, relative to pre-administration average (100)
[5] = riboflavin acetate 6 mg/kg, relative to pre-administration average (100)

Compound: O=C1O[C@H]([C@@H](O)CO)C(O)=C1O [Ascorbic acid, ascorbic acid]
- Total Cholesterol Level in Serum After Administration, 4 days [1, 2]: 98.7
- Total Cholesterol Level in Serum After Administration, 8 days [1, 2]: 98.2
- Total Cholesterol Level in Serum After Administration, 12 days [1, 2]: 103.4

Compound: CC(=O)Oc1c(C)c(C)c2c(c1C)CC[C@@](C)(CCC[C@H](C)CCC[C@H](C)CCCC(C)C)O2 [d-α-tocopherol acetate]
- Total Cholesterol Level in Serum After Administration, 4 days [1, 3]: 97.8
- Total Cholesterol Level in Serum After Administration, 4 days [1, 4]: 96.3
- Total Cholesterol Level in Serum After Administration, 8 days [1, 3]: 96.4
- Total Cholesterol Level in Serum After Administration, 8 days [1, 4]: 92.8
- Total Cholesterol Level in Serum After Administration, 12 days [1, 3]: 96.1
- Total Cholesterol Level in Serum After Administration, 12 days [1, 4]: 95.9

- ALP level (after administration), 4 days (ALP in the serum; 4 days): 98.1
- ALP level (after administration), 8 days (ALP in the serum; 8 days): 98.8
- ALP level (after administration), 12 days (ALP in the serum; 12 days): 93.9
Compound: Riboflavin acetate
- Total Cholesterol Level in Serum After Administration, 4 days ([1]; riboflavin acetate 6 mg/kg, relative to average level 2 and 1 week before administration (100)): 103.9
- Total Cholesterol Level in Serum After Administration, 8 days [1, 5]: 101.6
- Total Cholesterol Level in Serum After Administration, 12 days [1, 5]: 100.5
